According to patent publication US11471468B2, “Methods and systems for conditioning of particulate crystalline materials” (Pearl Therapeutics, Inc., priority 2013, dated 2022):

Legend:
Format in all cases: physicochemical
[1] = Particle size distribution by laser diffraction (Sympatec) after processing; conditions: for Physical stability after micronization judged from size distribution: laser diffraction, Tables 4 and 5; for Particle Size Distribution Initial Span / Particle Size Distribution Initial X50 / Particle Size Distribution Initial X90: micronized sucrose
Text: When referred to herein, the term “optical diameter” indicates the size of a particle as measured using a laser diffraction particle size analyzer equipped with a dry powder dispenser (e.g., Sympatec GmbH, Clausthal-Zellerfeld, Germany).
(§1) A portion of the micronized GP was also conditioned using an in-process conditioning system wherein nitrogen conditioning gas was supplied to the in-process conditioning system and was controlled for flow rate, temperature and humidity. The conditioning gas was humidified through a droplet evaporation chamber after which it was directed to a mixing zone. In the mixing zone, the conditioning gas was mixed with the jet-milled aerosol comprising the micronized GP. The aerosol then entered a conditioning zone where annealing of the micronized GP occurred. The particle residence time through the conditioning zone was adjusted by means of the conditioning zone chamber geometry and/or the gas flow rate through the conditioning zone chamber. After passing through the conditioning zone, the micronized GP particles reached the cyclone-collection zone where the solid particles were separated from the gas phase and transported to a collection vessel. Upon completion of the batch processing, the collector was disengaged and transferred to a glove box for sampling. The sampling occurred in a <5% relative humidity environment. Samples were then analyzed for particle size distribution and amorphous content.
(§2) Both micronized sucrose batches were analyzed for particle size distribution by Sympatec laser diffraction.

[2] = Amorphous content by (dynamic) vapor sorption; conditions: for Amorphous content by ethanol vapor sorption isotherm / Amorphous content by water vapor sorption isotherm: 25° C.; for Amorphous content by ethanol vapor sorption isotherm: FIG. 9 / FIG. 11; for Amorphous content by water vapor sorption isotherm: FIG. 13
Text: as §1
(§3) The amorphous content by vapor sorption and particle morphology for both batches were also assessed. FIG. 9 provides the ethanol vapor sorption isotherm at 25° C. for both batches of micronized budesonide.
(§4) The amorphous content by vapor sorption and particle morphology for both batches were also assessed. FIG. 11 provides the ethanol vapor sorption isotherm at 25° C. for both batches of micronized fluticasone.
All batches were also analyzed for amorphous content by dynamic vapor sorption using n=2 replicates per collector.
(§5) The amorphous content by vapor sorption and particle morphology for both batches of micronized sucrose were also assessed. FIG. 13 provides the water vapor sorption isotherm at 25° C. for both batches of micronized sucrose.

[3] = Particle morphology by electron micrograph / SEM; conditions: FIG. 10 / FIG. 12 / FIG. 14
Procedure: as §3, §4, §5

[4] = Particle size distribution by laser diffraction (Sympatec) after processing; conditions: for D10 / D50 / D90 / Span: micronized fluticasone propionate; for Particle Size Distribution Initial X10: micronized sucrose
[5] = Physical stability: particle size distribution and fusing after 1-day exposure to 25° C. and 60% relative humidity; conditions: micronized sucrose; for Physical Stability: 25° C./60% RH; for Stability of powder on exposure: Sucrose A by visual observation, Sucrose B exposed to 25° C./60% RH
Text: When used to refer to the conditioned particulate material described herein, the terms “physical stability” and “physically stable” refer to a composition that is resistant to one or more of particle fusing, aggregation, agglomeration, and particle size changes. In certain embodiments, physical stability may be evaluated through exposing the particulate material to accelerated degradation conditions, such as increased temperature and/or humidity as described herein.
as §2

[6] = Stability diagram (glass transition plasticization curve combined with sorption isotherm); conditions: from stability diagram FIG. 18
Text: Crystallization of an amorphous phase typically occurs rapidly when the amorphous material is exposed to conditions that exceed its glass transition temperature, usually twenty degrees Celsius above the glass transition temperature (Lechuga-Ballesteros, D.; Miller, D. P.; Zhang, J., Residual water in amorphous solids, measurement and effects on stability. In Progress in Amorphous Food and Pharmaceutical Systems, Levine, H., Ed. The Royal Society of Chemistry: London, 2002; pp 275-316). Exposure of amorphous material to temperature in excess of the glass transition can be achieved in the absence of any solvent by exposing the amorphous material to a stream of hot air above its glass transition temperature. However, the glass transition temperature is also a function of the fraction of solvent present in the amorphous material, an effect known as plasticization.
In addition, the solvent content held in an amorphous material is a function of the vapor concentration of the solvent surrounding the amorphous solid. The sorption isotherm of a given material is a representation of the amount of solvent in the amorphous material as a function of the solvent activity (which is proportional to the solvent vapor pressure to saturation solvent vapor pressure ratio) at a given temperature. […]

**Q.** What does the source list for `CCC(=O)O[C@]1(C(=O)SCF)[C@H](C)C[C@H]2[C@@H]3C[C@H](F)C4=CC(=O)C=C[C@]4(C)[C@@]3(F)[C@@H](O)C[C@@]21C` [Micronized Fluticasone propionate, Batch 2 (annealed)]?
**A.** Physical stability after micronization judged from size distribution [1]: good physical stability; Amorphous content by ethanol vapor sorption isotherm [2]: stable and showed no crystallization event; Particle morphology by SEM, annealed compared with unannealed material [3]: smoother surfaces and more rounded edges; D10 [4]: 0.5 μm; D50 [4]: 1.4 μm; D90 [4]: 3.1 μm; Span [4]: 1.9

**Q.** For `OC[C@H]1O[C@@](CO)(O[C@H]2O[C@H](CO)[C@@H](O)[C@H](O)[C@H]2O)[C@@H](O)[C@@H]1O` [Sucrose A, Sucrose], which Particle Size Distribution Initial Span ([1]; listed as Sucrose 1) is on record?
**A.** 2.4

**Q.** What about the “Particle Size Distribution Initial X50” value ([1]; listed as Sucrose 1) of the same compound?
**A.** 1.7 μm

**Q.** And the “Particle Size Distribution Initial X90” value ([1]; listed as Sucrose 1)?
**A.** 4.5 μm

**Q.** What about the “Physical Stability” value ([5]; listed as Sucrose 1) of the same compound?
**A.** Unstable,

**Q.** What about the “Stability of powder on exposure” value [5] of the same compound?
**A.** fusing of the material

**Q.** And the “Water relative pressure at which weight loss is seen” value ([2]; water vapor sorption isotherm at 25° C.)?
**A.** 30 % p/po

**Q.** And the “Amorphous content by water vapor sorption isotherm” value [2]?
**A.** remained substantially amorphous

**Q.** What about the “Particle Size Distribution Initial X10” value ([4]; listed as Sucrose 1) of the same compound?
**A.** 0.5 μm

**Q.** For `CCC(=O)O[C@]1(C(=O)SCF)[C@H](C)C[C@H]2[C@@H]3C[C@H](F)C4=CC(=O)C=C[C@]4(C)[C@@]3(F)[C@@H](O)C[C@@]21C` [Micronized Fluticasone propionate, Batch 1 (unannealed)], which “Physical stability after micronization judged from size distribution” value [1] is on record?
**A.** agglomeration

**Q.** What about the “Ethanol relative pressure at which weight loss is seen” value ([2]; ethanol vapor sorption isotherm at 25° C.) of the same compound?
**A.** 60 % p/po

**Q.** What about the “Amorphous content by ethanol vapor sorption isotherm” value [2] of the same compound?
**A.** remained substantially amorphous

**Q.** What about the D10 [4] of the same compound?
**A.** 0.5 μm

**Q.** And the D50 [4]?
**A.** 1.5 μm

**Q.** What about the D90 [4] of the same compound?
**A.** 3.4 μm

**Q.** What about the Span [4] of the same compound?
**A.** 2.0

**Q.** Which results are given for `C[N+]1(C)CCC(OC(=O)C(O)(c2ccccc2)C2CCCC2)C1.[Br-]` (stereo not drawn) [glycopyrrolate, 3-[(cyclopentylhydroxyphenylacetyl)oxy]-1,1-dimethylpyrrolidinium bromide]?
**A.** RH required to promote annealing ([6]; at 60° C.): 10 % RH; RH at which fast crystallization of amorphous material will occur ([6]; in the range of 20-40° C.): > 50%

**Q.** Which results are given for `OC[C@H]1O[C@@](CO)(O[C@H]2O[C@H](CO)[C@@H](O)[C@H](O)[C@H]2O)[C@@H](O)[C@@H]1O` [Sucrose B, Sucrose]?
**A.** Particle Size Distribution Initial Span ([1]; listed as Sucrose 2): 1.9; Particle Size Distribution Initial X50 ([1]; listed as Sucrose 2): 2.2 μm; Particle Size Distribution Initial X90 ([1]; listed as Sucrose 2): 4.9 μm; Physical Stability [5]: Stable,; Particle Size Distribution T = 1 day at 25° C./60% RH Span ([5]; T = 1 day at 25° C./60% RH): 1.9; Particle Size Distribution T = 1 day at 25° C./60% RH X10 ([5]; T = 1 day at 25° C./60% RH): 0.7 μm; Particle Size Distribution T = 1 day at 25° C./60% RH X50 ([5]; T = 1 day at 25° C./60% RH): 2.5 μm; Particle Size Distribution T = 1 day at 25° C./60% RH X90 ([5]; T = 1 day at 25° C./60% RH): 5.2 μm; Stability of powder on exposure [5]: good stability; Amorphous content by water vapor sorption isotherm [2]: stable and showed no crystallization event; Particle morphology by SEM, annealed compared with unannealed material [3]: smoother surfaces and more rounded edges; Particle Size Distribution Initial X10 ([4]; listed as Sucrose 2): 0.6 μm
